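The compound was tested at five concentrations on cells cultured in 96-well plates, with a 48-hour exposure period. TGI: total growth inhibition.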
Experiments:
Assay in all cases: DTP human tumour cell line panel, 48 h
[1] = test system: KM20L2 colon
[2] = test system: MALME-3M melanoma
[3] = test system: DMS 273 small cell lung
[4] = test system: NCI-H23 lung
[5] = test system: IGROV1 ovarian
[6] = test system: RPMI-8226 leukemia
[7] = test system: A498 renal
[8] = test system: HL-60(TB) leukemia
[9] = test system: M19-MEL melanoma
[10] = test system: UACC-257 melanoma
[11] = test system: M14 melanoma
[12] = test system: UO-31 renal
[13] = test system: CAKI-1 renal
[14] = test system: HCT-116 colon
[15] = test system: EKVX NSCLC
[16] = test system: A549 NSCLC
[17] = test system: OVCAR-3 ovarian
[18] = test system: OVCAR-4 ovarian
[19] = test system: XF 498 CNS
[20] = test system: SF-539 CNS
[21] = test system: CCRF-CEM leukemia
[22] = test system: SN12C renal
[23] = test system: NCI-H226 lung
[24] = test system: OVCAR-5 ovarian
[25] = test system: TK-10 renal
[26] = test system: UACC-62 melanoma
[27] = test system: SK-MEL-28 melanoma
[28] = test system: HCT-15 colon
[29] = test system: SNB-19 CNS
[30] = test system: HCC-2998 colon
[31] = test system: SNB-78 CNS
[32] = test system: OVCAR-8 ovarian
[33] = test system: COLO 205 colon
[34] = test system: SF-268 CNS
[35] = test system: NCI-H460 lung
[36] = test system: ACHN renal
[37] = test system: SR leukemia
[38] = test system: LOX IMVI melanoma
[39] = test system: HOP-18 NSCLC
[40] = test system: SW-620 colon
[41] = test system: NCI-H522 lung
[42] = test system: U251 CNS
[43] = test system: K-562 leukemia
[44] = test system: SNB-75 CNS
[45] = test system: MOLT-4 leukemia
[46] = test system: LXFL 529 NSCLC
[47] = test system: HT29 colon
[48] = test system: HOP-92 NSCLC
[49] = test system: SK-OV-3 ovarian
[50] = test system: SF-295 CNS
[51] = test system: KM12 colon
[52] = test system: SK-MEL-5 melanoma
[53] = test system: DLD-1 colon
[54] = test system: DMS 114 small cell lung
[55] = test system: 786-0 renal
[56] = test system: SK-MEL-2 melanoma
[57] = test system: HOP-62 NSCLC
[58] = test system: RXF 393 renal

COc1ccc(N2C(=O)C3c4[nH]c5ccccc5c4C4CCCCCCC4C3C2=O)cc1 (stereo not given)
TGI [1]: > 100 µM | TGI [2]: 41.4 µM | TGI [3]: 18.6 µM | TGI [4]: 31.2 µM | TGI [5]: 59.1 µM | TGI [6]: > 100 µM | TGI [7]: 52.3 µM | TGI [8]: 74 µM | TGI [9]: > 80.3 µM | TGI [10]: > 100 µM | TGI [11]: 37.4 µM | TGI [12]: 44.1 µM | TGI [13]: 39.5 µM | TGI [14]: 15.3 µM | TGI [15]: 41.4 µM | TGI [16]: 22.8 µM | TGI [17]: 16.8 µM | TGI [18]: 33.2 µM | TGI [19]: 25.7 µM | TGI [20]: 21.5 µM | TGI [21]: 21.5 µM | TGI [22]: 14.9 µM | TGI [23]: 31.6 µM | TGI [24]: > 100 µM | TGI [25]: 40.4 µM | TGI [26]: 39.2 µM | TGI [27]: 42 µM | TGI [28]: 27 µM | TGI [29]: 28.1 µM | TGI [30]: > 100 µM | TGI [31]: > 100 µM | TGI [32]: 13 µM | TGI [33]: > 48.6 µM | TGI [34]: 31.3 µM | TGI [35]: 27.5 µM | TGI [36]: 18.7 µM | TGI [37]: > 21.3 µM | TGI [38]: 20.8 µM | TGI [39]: 3.2 µM | TGI [40]: 34.1 µM | TGI [41]: 36.5 µM | TGI [42]: 16.5 µM | TGI [43]: > 75.2 µM | TGI [44]: 27.8 µM | TGI [45]: 37.9 µM | TGI [46]: 17.1 µM | TGI [47]: > 100 µM | TGI [48]: 33.4 µM | TGI [49]: 33.2 µM | TGI [50]: 26 µM | TGI [51]: > 100 µM | TGI [52]: 61.9 µM | TGI [53]: > 43.4 µM | TGI [54]: 28 µM | TGI [55]: 8.29 µM | TGI [56]: > 69.8 µM | TGI [57]: 26 µM

Clc1ccc(-c2c(C3=NCCN3)nnn2-c2ccccc2)cc1
TGI [1]: > 100 µM | TGI [2]: > 100 µM | TGI [3]: > 100 µM | TGI [4]: > 100 µM | TGI [5]: > 100 µM | TGI [6]: > 100 µM | TGI [7]: > 100 µM | TGI [8]: > 100 µM | TGI [9]: > 100 µM | TGI [10]: > 100 µM | TGI [11]: > 100 µM | TGI [12]: > 100 µM | TGI [13]: > 100 µM | TGI [14]: > 100 µM | TGI [15]: > 100 µM | TGI [16]: > 100 µM | TGI [17]: > 100 µM | TGI [18]: > 100 µM | TGI [19]: > 100 µM | TGI [20]: > 100 µM | TGI [21]: > 100 µM | TGI [22]: > 100 µM | TGI [23]: > 100 µM | TGI [24]: > 100 µM | TGI [25]: > 100 µM | TGI [26]: > 100 µM | TGI [27]: > 100 µM | TGI [28]: > 100 µM | TGI [29]: > 100 µM | TGI [30]: > 100 µM | TGI [31]: > 100 µM | TGI [32]: > 100 µM | TGI [33]: > 100 µM | TGI [58]: > 100 µM | TGI [34]: > 100 µM | TGI [35]: > 100 µM | TGI [36]: > 100 µM | TGI [37]: > 100 µM | TGI [38]: > 100 µM | TGI [39]: > 100 µM | TGI [40]: > 100 µM | TGI [41]: > 100 µM | TGI [42]: > 100 µM | TGI [43]: > 100 µM | TGI [44]: > 100 µM | TGI [45]: > 100 µM | TGI [46]: > 100 µM | TGI [47]: > 100 µM | TGI [48]: > 100 µM | TGI [49]: > 100 µM | TGI [50]: > 100 µM | TGI [51]: > 100 µM | TGI [52]: > 100 µM | TGI [53]: > 100 µM | TGI [54]: > 100 µM | TGI [55]: > 100 µM | TGI [56]: > 100 µM | TGI [57]: > 100 µM

Source: PubChem BioAssay (NCI)
